Values of other authors in patent US20120021048A1, “Combination Dosage Compositions Comprising a Cholesterol-Lowering Agent, a Renin-Angiotensin System Inhibitor, an Antioxidant Agent and an Antiplatelet Agent for Treatment and Prevention of Cardiovascular Disease” (Nucitec S.A. de C.V., priority 2010, published 2012).
Read-outs that look alike come from different tables or passages of the source.

Assays:
[1] = expected value, single agent at polypill dose, cited from earlier work
[2] = expected value; doses of polypill (atorvastatin 20 mg, lycopene 30 mg); cited from earlier work
[3] = in vivo pure lycopene supplementation; cited from earlier work
macrophages = conditions: lycopene added to macrophages in cell culture; cited from earlier work

Row | Compound | % reduction in risk of Ischaemic heart disease [1] [%] | % reduction in risk of Ischaemic heart disease ([1]; listed as acetylsalicylic acid) | Reduction in concentration (LDL-cholesterol) [2] [mg/dL] | % reduction in risk of Ischaemic heart disease ([1]; listed as atorvastatin) | reduction of plasma LDL cholesterol concentration [3] [%] | suppression of cellular cholesterol synthesis (macrophages)
1 | CC(=O)Oc1ccccc1C(=O)O [Acetylsalicylic Acid] | 32 | about 32% |  |  |  | 
2 | CC(C)c1c(C(=O)Nc2ccccc2)c(-c2ccccc2)c(-c2ccc(F)cc2)n1CC[C@@H](O)C[C@@H](O)CC(=O)O [Atorvastatin] | 61 |  | 70 | about 61% |  | 
3 | CC(C)=CCC/C(C)=C/C=C/C(C)=C/C=C/C(C)=C/C=C/C=C(C)/C=C/C=C(C)/C=C/C=C(\C)CCC=C(C)C [Lycopene] | ~20 |  | 14 to 20 |  | 14 | approximately 40%
4 | CCOC(=O)[C@H](CCc1ccccc1)N[C@@H](C)C(=O)N1[C@H](C(=O)O)C[C@@H]2CCC[C@@H]21 [Ramipril] | ~25 |  |  |  |  | 
